From patent publication US20250171434A1, “SEC61 INHIBITORS AND USE THEREOF” (KEZAR LIFE SCIENCES, INC., priority 2022, published 2025)
Like-named read-outs stand apart in the source and are kept apart here.

Key:
[1] = system: IL-2-FL/Gaussia Luciferase; assay: Dox Inducible IL2-FL-Gluc Assay; format: cell-based
Method in brief: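 Flp-In 293 T-REx cells stably carrying doxycycline-inducible full-length IL-2 (aa 1-153) fused at its C-terminus to Gaussia luciferase, selected with hygromycin and blasticidin. Cells were plated the day before, then treated with compounds in DMSO/media containing doxycycline at 37° C, 5% CO2.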

CD47(ss + 10)Gluc = assay: Dox-Induced CD47-ss-Gluc Assay; format: cell-based
[2] = Liver Microsome Stability Assay, rat; format: in vitro ADME; conditions: rat liver microsomes 1.0 mg/mL, 1.0 uM compound, 37° C., 1 mM NADPH
Method in brief: (§1)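 Microsomes (1.0 mg/mL) in 0.1 M potassium phosphate are mixed with 1.0 uM test compound and 0.4% DMSO. Incubation runs at 37° C with or without 1 mM NADPH, and samples are quenched at 0 and 30 minutes.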

[3] = system: PD1-ss+10aa/Gaussia Luciferase; assay: Dox-Induced PD1-ss-Gluc Assay; format: cell-based
Method in brief: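 The cell line was made by transfecting Flp-In 293 T-REx cells with a PD1 signal sequence+10aa–Gaussia luciferase fusion under T-REx control and selecting with hygromycin and blasticidin. Cells were seeded, and next day compound plus doxycycline was added at 37 °C, 5% CO2.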

[4] = system: multiple myeloma cell line U266B1; assay: U266 Cell Viability Assay; format: cell-based; conditions: Homo sapiens
Method in brief: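 Cells grown in RPMI 1640 with 10% FBS, 2 mM glutamine and penicillin/streptomycin were exposed to compound dilutions in DMSO/media for 48 hours at 37° C., 5% CO2. Viability was read by CellTiter-Glo luminescence. Undefined stereocentres mean data for stereoisomer mixtures.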

[5] = system: IL6R-ss+10aa/Gaussia Luciferase; assay: Dox-induced IL-6R-ss-Gluc Assay; format: cell-based
Method in brief: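 Flp-In 293 T-REx cells stably carrying a doxycycline-inducible IL6R signal sequence+10 aa fused to Gaussia luciferase. Cells plated the day before; compound dilutions added in DMSO/media containing doxycycline and incubated at 37 °C, 5% CO2.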

[6] = system: multiple myeloma cell line NCI-H929; assay: H929 Cell Viability Assay; format: cell-based, human; conditions: Homo sapiens
Method in brief: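 NCI-H929 cells, resuspended in RPMI 1640 with 10% FBS and 2 mM glutamine, were treated with compound dilutions in DMSO/media and incubated 48 hours at 37° C, 5% CO2. Viability was read by CellTiter-Glo luminescence. Compounds drawn without stereochemistry were tested as stereoisomer mixtures.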

[7] = Liver Microsome Stability Assay, human; format: in vitro ADME; conditions: human liver microsomes 1.0 mg/mL, 1.0 uM compound, 37° C., 1 mM NADPH
Method in brief: as §1

[8] = Liver Microsome Stability Assay, mouse; format: in vitro ADME; conditions: mouse liver microsomes 1.0 mg/mL, 1.0 uM compound, 37° C., 1 mM NADPH
Method in brief: as §1

[9] = Liver Microsome Stability Assay, monkey; format: in vitro ADME; conditions: monkey liver microsomes 1.0 mg/mL, 1.0 uM compound, 37° C., 1 mM NADPH
Method in brief: as §1

[10] = ratio of IC50s IL2/PD1; Table 1
[11] = Flp-In 293 T-REx cells, 24 hours with doxycycline; Table 1; read-out: 24 hr Dox Inducible CD47(ss + 10)Gluc 293FRT/TO: Mean IC50
[12] = Flp-In 293 T-REx cells, 24 hours with doxycycline; Table 1; read-out: 24 hr Dox Inducible PD1ssGluc 293FRT/TO: Mean IC50
[13] = U-266, U266B1 cells, 48 hours, Celltiter-Glo, read-out: 48 hr U266 Viability Celltiter-Glo: Mean EC50
[14] = Flp-In 293 T-REx cells, 24 hours with doxycycline; Table 1; read-out: 24hr Dox Inducible IL6R(ss + 10)Gluc 293FRT/TO: Mean IC50
[15] = ratio of IC50s IL6R/PD1; Table 1
[16] = NCI-H929 cells, 48 hours, Celltiter-Glo, read-out: 48 hr H929 Viability Celltiter-Glo: Mean EC50
[17] = Flp-In 293 T-REx cells, 24 hours with doxycycline; Table 1; read-out: 24 hr Dox Inducible IL2FLGluc 293FRT/TO: Mean IC50

Structure (SMILES)	24 hr Dox Inducible IL2FLGluc 293FRT/TO: Mean IC50 (nM) ([1]; Flp-In 293 T-REx cells, 24 hours with doxycycline; Table 1)	IC50 (CD47(ss + 10)Gluc; [11]) [µM]	Liver Microsome Stability (Multiple Species): Rat - % Remaining after 30 min w/ NADPH (%) [2] [%]	IC50 [3, 12] [µM]	EC50 [4, 13] [nM]	IC50 [5, 14] [µM]	EC50 [6, 16] [nM]	Liver Microsome Stability (Multiple Species): Human - % Remaining after 30 min w/ NADPH (%) [7] [%]	Liver Microsome Stability (Multiple Species): Mouse - % Remaining after 30 min w/ NADPH (%) [8] [%]	Liver Microsome Stability (Multiple Species): Monkey - % Remaining after 30 min w/ NADPH (%) [9] [%]	IC50 [1, 17] [µM]	24 hr Dox Inducible IL2FLGluc 293FRT/TO: IL2/PD1 [1, 10]	24hr Dox Inducible IL6R(ss + 10)Gluc 293FRT/TO: IL6R/PD1 [5, 15]	IC50 ([1]; read-out: 24 hr Dox Inducible IL2FLGluc 293FRT/TO: Mean IC50; Flp-In 293 T-REx cells, 24 hours with doxycycline; Table 1) [µM]	IC50 (CD47(ss + 10)Gluc; read-out: 24 hr Dox Inducible CD47(ss + 10)Gluc 293FRT/TO: Mean IC50; Flp-In 293 T-REx cells, 24 hours with doxycycline; Table 1) [µM]	IC50 ([3]; read-out: 24 hr Dox Inducible PD1ssGluc 293FRT/TO: Mean IC50; Flp-In 293 T-REx cells, 24 hours with doxycycline; Table 1) [µM]	EC50 ([4]; U-266, 48 h, read-out: 48 hr U266 Viability Celltiter-Glo: Mean EC50 (nM)) [nM]	IC50 ([5]; read-out: 24hr Dox Inducible IL6R(ss + 10)Gluc 293FRT/TO: Mean IC50; Flp-In 293 T-REx cells, 24 hours with doxycycline; Table 1) [µM]	EC50 ([6]; NCI-H929, 48 h, read-out: 48 hr H929 Viability Celltiter-Glo: Mean EC50 (nM)) [nM]
O=C(Nc1nc(/C=C/c2cn(C(F)(F)F)cn2)cs1)c1cc(Cl)cn1Cc1ccnc(F)c1 [Compound A3, (E)-4-chloro-1-((2-fluoropyridin-4-yl)methyl)-N-(4-(2-(1-(trifluoromethyl)-1H-imidazol-4-yl)vinyl)thiazol-2-yl)-1H-pyrrole-2-carboxamide]		15.2	21	1.76	> 20200	4.68	4550	6	61	4	12.2	7	3						
O=C(Nc1nc(/C=C/c2cn(C(F)F)cn2)cs1)c1cc(Cl)cn1Cc1ccnc(F)c1 [Compound A5, (E)-4-chloro-N-(4-(2-(1-(difluoromethyl)-1H-imidazol-4-yl)vinyl)thiazol-2-yl)-1-((2-fluoropyridin-4-yl)methyl)-1H-pyrrole-2-carboxamide]			42					4	73	2		>57	>57	> 25	> 25	0.436	16800	> 25	10100
COc1cc(C(=O)Nc2nc(/C(F)=C/c3cn(C(C)C)cn3)cs2)n(Cc2ccnc(F)c2)c1 [Compound A9, (Z)-N-(4-(1-fluoro-2-(1-isopropyl-1H-imidazol-4-yl)vinyl)thiazol-2-yl)-1-((2-fluoropyridin-4-yl)methyl)-4-methoxy-1H-pyrrole-2-carboxamide]		> 25	66	> 25	> 25000	> 25	> 25000	11	64	9	> 25								
N[C@H]1CC[C@@H](/C=C/c2csc(NC(=O)c3cccn3Cc3ccncc3)n2)CC1 [Compound B16, N-(4-((E)-2-((1s,4s)-4-aminocyclohexyl)vinyl)thiazol-2-yl)-1-(pyridin-4-ylmethyl)-1H-pyrrole-2-carboxamide]		7.07	47	8.11	21300	8.77	19300	1	79	2	19.5	2.4	1						

More lines, main results first:

24 hr Dox Inducible IL2FLGluc 293FRT/TO: Mean IC50 (nM) ([1]; Flp-In 293 T-REx cells, 24 hours with doxycycline; Table 1)	IC50 (CD47(ss + 10)Gluc; [11]) [µM]	Liver Microsome Stability (Multiple Species): Rat - % Remaining after 30 min w/ NADPH (%) [2] [%]	IC50 [3, 12] [µM]	EC50 [4, 13] [nM]	IC50 [5, 14] [µM]	EC50 [6, 16] [nM]	Liver Microsome Stability (Multiple Species): Human - % Remaining after 30 min w/ NADPH (%) [7] [%]	Liver Microsome Stability (Multiple Species): Mouse - % Remaining after 30 min w/ NADPH (%) [8] [%]	Liver Microsome Stability (Multiple Species): Monkey - % Remaining after 30 min w/ NADPH (%) [9] [%]	IC50 [1, 17] [µM]	Structure (SMILES)	24 hr Dox Inducible IL2FLGluc 293FRT/TO: IL2/PD1 [1, 10]	24hr Dox Inducible IL6R(ss + 10)Gluc 293FRT/TO: IL6R/PD1 [5, 15]	IC50 ([1]; read-out: 24 hr Dox Inducible IL2FLGluc 293FRT/TO: Mean IC50; Flp-In 293 T-REx cells, 24 hours with doxycycline; Table 1) [µM]	IC50 (CD47(ss + 10)Gluc; read-out: 24 hr Dox Inducible CD47(ss + 10)Gluc 293FRT/TO: Mean IC50; Flp-In 293 T-REx cells, 24 hours with doxycycline; Table 1) [µM]	IC50 ([3]; read-out: 24 hr Dox Inducible PD1ssGluc 293FRT/TO: Mean IC50; Flp-In 293 T-REx cells, 24 hours with doxycycline; Table 1) [µM]	EC50 ([4]; U-266, 48 h, read-out: 48 hr U266 Viability Celltiter-Glo: Mean EC50 (nM)) [nM]	IC50 ([5]; read-out: 24hr Dox Inducible IL6R(ss + 10)Gluc 293FRT/TO: Mean IC50; Flp-In 293 T-REx cells, 24 hours with doxycycline; Table 1) [µM]	EC50 ([6]; NCI-H929, 48 h, read-out: 48 hr H929 Viability Celltiter-Glo: Mean EC50 (nM)) [nM]
I.A	3.06	5	0.01	> 25000	1.94	> 25000	1	27	2		O=C(Nc1nc(/C=C/c2ncn(C3CC3)c2Cl)cs1)c1cc(SC(F)F)cn1Cc1ccnc(F)c1 [Compound A32, (E)-N-(4-(2-(5-chloro-1-cyclopropyl-1H-imidazol-4-yl)vinyl)thiazol-2-yl)-4-((difluoromethyl)thio)-1-((2-fluoropyridin-4-yl)methyl)-1H-pyrrole-2-carboxamide]	>2400	187						
	3.31	20	0.007	> 25000	2.11	> 25000	29	76	4	3.44	[2H]C([2H])(c1ccnc(F)c1)n1cc(OC)cc1C(=O)Nc1nc(/C=C/c2ncn(C3CC3)c2Cl)cs1 [Compound A14, (E)-N-(4-(2-(5-chloro-1-cyclopropyl-1H-imidazol-4-yl)vinyl)thiazol-2-yl)-1-((2-fluoropyridin-4-yl)methyl-d2)-4-methoxy-1H-pyrrole-2-carboxamide]	520	318						
	> 25	40	0.877	> 25000	> 25	> 25000	29	70	16	> 25	Cc1cnc(F)c(C)c1Cn1cc(OC(F)F)cc1C(=O)Nc1nc(/C=C/c2ncn(C3CC3)c2Cl)cs1 [Compound A26, (E)-N-(4-(2-(5-chloro-1-cyclopropyl-1H-imidazol-4-yl)vinyl)thiazol-2-yl)-4-(difluoromethoxy)-1-((2-fluoro-3,5-dimethylpyridin-4-yl)methyl)-1H-pyrrole-2-carboxamide]	>22	28						
	5.53	30	0.008	> 25000	9.97	> 25000	20	77	12	11.5	Cc1cnc(F)cc1Cn1cc(OC(F)F)cc1C(=O)Nc1nc(/C=C/c2ncn(C3CC3)c2Cl)cs1 [Compound A24, (E)-N-(4-(2-(5-chloro-1-cyclopropyl-1H-imidazol-4-yl)vinyl)thiazol-2-yl)-4-(difluoromethoxy)-1-((2-fluoro-5-methylpyridin-4-yl)methyl)-1H-pyrrole-2-carboxamide]	1100.0	1283						
